Laboratory results taken from BindingDB's records for doi:10.1021/jm00003a002 (University of Minnesota, 1995).

Legend:
[1] = The opioid receptor affinity(Ki) was evaluated by competition with [3H]DSLET (delta 2) on guinea pig brain membranes
[2] = The opioid receptor affinity(Ki) was evaluated by competition with [3H]-DPDPE (delta 1) on guinea pig brain membranes

Row | SMILES | Ki [1] [nM] | Ki [2] [nM]
1 | O=C(O)C[C@@H](NC(=O)c1cccc2c3c([nH]c12)[C@@H]1Oc2c(O)ccc4c2C12CCN(CC1CC1)C(C4)[C@]2(O)C3)C(=O)O (stereo partly drawn) [2-[22-cyclopropylmethyl-2,16-dihydroxy-(2S,13R)-14-oxa-11,22-diazaheptacyclo[13.9.1.01,13.02,21.04,12.05,10.019,25]pentacosa-4(12),5(10),6,8,15(25),16,18-heptaen-9-ylcarboxamido]-(2R)-butanedioic acid] | 0.41 | 0.14
2 | N=C(N)NCCC[C@@H](NC(=O)c1cccc2c3c([nH]c12)[C@@H]1Oc2c(O)ccc4c2C12CCN(CC1CC1)C(C4)[C@]2(O)C3)C(=O)O (stereo partly drawn) [5-amino(imino)methylamino-2-[22-cyclopropylmethyl-2,16-dihydroxy-(2S,13R)-14-oxa-11,22-diazaheptacyclo[13.9.1.01,13.02,21.04,12.05,10.019,25]pentacosa-4(12),5(10),6,8,15(25),16,18-heptaen-9-ylcarboxamido]-(2R)-pentanoic acid] | 0.083 | 0.16
3 | NCCC[C@@H](NC(=O)c1cccc2c3c([nH]c12)[C@@H]1Oc2c(O)ccc4c2C12CCN(CC1CC1)C(C4)[C@]2(O)C3)C(=O)O (stereo partly drawn) [5-amino-2-[22-cyclopropylmethyl-2,16-dihydroxy-(2S,13R)-14-oxa-11,22-diazaheptacyclo[13.9.1.01,13.02,21.04,12.05,10.019,25]pentacosa-4(12),5(10),6,8,15(25),16,18-heptaen-9-ylcarboxamido]-(2R)-pentanoic acid] | 0.015 | 0.18
4 | NCCCC[C@@H](NC(=O)c1cccc2c3c([nH]c12)[C@@H]1Oc2c(O)ccc4c2C12CCN(CC1CC1)C(C4)[C@]2(O)C3)C(=O)O (stereo partly drawn) [6-amino-2-[22-cyclopropylmethyl-2,16-dihydroxy-(2S,13R)-14-oxa-11,22-diazaheptacyclo[13.9.1.01,13.02,21.04,12.05,10.019,25]pentacosa-4(12),5(10),6,8,15(25),16,18-heptaen-9-ylcarboxamido]-(2R)-hexanoic acid] | 0.75 | 0.3
5 | O=C(O)c1cccc2c3c([nH]c12)[C@@H]1Oc2c(O)ccc4c2C12CCN(CC1CC1)C(C4)[C@]2(O)C3 (stereo partly drawn) [22-cyclopropylmethyl-2,16-dihydroxy-(2S,13R)-14-oxa-11,22-diazaheptacyclo[13.9.1.01,13.02,21.04,12.05,10.019,25]pentacosa-4(12),5(10),6,8,15(25),16,18-heptaene-9-carboxylic acid] | 0.016 | 0.013
6 | O=C(O)CNC(=O)c1cccc2c3c([nH]c12)[C@@H]1Oc2c(O)ccc4c2C12CCN(CC1CC1)C(C4)[C@]2(O)C3 (stereo partly drawn) [32+/-82-[22-cyclopropylmethyl-2,16-dihydroxy-(2S,13R)-14-oxa-11,22-diazaheptacyclo[13.9.1.01,13.02,21.04,12.05,10.019,25]pentacosa-4(12),5(10),6,8,15(25),16,18-heptaen-9-ylcarboxamido]acetic acid] | – | 0.005
